Key:
Assay type in all cases: in vivo
[1] = test system: Diabrotica balteata (Corn Root Worm); experiment: Example B1: Diabrotica balteata (corn root worm), sprayed maize sprouts on agar, L2 larvae; conditions: 96 h, application rate of 200 ppm, 4 days after infestation, in comparison to untreated samples, read-out: effect in at least one of the two categories (mortality or growth inhibition)
Experimental: Example B1: Diabrotica balteata (Corn Root Worm
Maize sprouts placed onto an agar layer in 24-well microtiter plates were treated with aqueous test solutions prepared from 10′000 ppm DMSO stock solutions by spraying. After drying, the plates were infested with L2 larvae (6 to 10 per well). The samples were assessed for mortality and growth inhibition in comparison to untreated samples 4 days after infestation.

[2] = test system: Euschistus heros (Neotropical Brown Stink Bug); experiment: Example B2: Euschistus heros (neotropical brown stink bug), sprayed soybean leaves, N2 nymphs; conditions: 120 h, application rate of 200 ppm, 5 days after infestation, in comparison to untreated samples, read-out: effect in at least one of the two categories (mortality or growth inhibition)
Experimental: Example B2: Euschistus heros (Neotropical Brown Stink Bug
Soybean leaves on agar in 24-well microtiter plates were sprayed with aqueous test solutions prepared from 10′000 ppm DMSO stock solutions. After drying the leaves were infested with N2 nymphs. The samples were assessed for mortality and growth inhibition in comparison to untreated samples 5 days after infestation.

[3] = test system: Plutella xylostella (Diamond Back Moth); experiment: Example B4: Plutella xylostella (diamond back moth), treated artificial diet, eggs; conditions: 192 h, application rate of 200 ppm, 8 days after infestation, in comparison to untreated samples, read-out: effect in at least one of the two categories (mortality or growth inhibition)
Experimental: Example B4: Plutella xylostella (Diamond Back Moth
24-well microtiter plates with artificial diet were treated with aqueous test solutions prepared from 10′000 ppm DMSO stock solutions by pipetting. After drying, Plutella eggs were pipetted through a plastic stencil onto a gel blotting paper and the plate was closed with it. The samples were assessed for mortality and growth inhibition in comparison to untreated samples 8 days after infestation.

[4] = test system: Myzus persicae (Green Peach Aphid); experiment: Example B5: Myzus persicae (green peach aphid), feeding/contact activity, sprayed sunflower leaf discs; conditions: foliar, 144 h, application rate of 200 ppm, aphid population of mixed ages, 6 days after infestation
Experimental: Example B5: Myzus persicae (Green Peach Aphid). Feeding/Contact Activity
Sunflower leaf discs were placed onto agar in a 24-well microtiter plate and sprayed with aqueous test solutions prepared from 10′000 ppm DMSO stock solutions. After drying, the leaf discs were infested with an aphid population of mixed ages. The samples were assessed for mortality 6 days after infestation.

[5] = test system: Spodoptera littoralis (Egyptian Cotton Leaf Worm); experiment: Example B7: Spodoptera littoralis (Egyptian cotton leaf worm), sprayed cotton leaf discs, L1 larvae; conditions: foliar, 72 h, application rate of 200 ppm, 3 days after infestation, in comparison to untreated samples
Experimental: Example B7: Spodoptera littoralis (Egyptian Cotton Leaf Worm
Cotton leaf discs were placed onto agar in 24-well microtiter plates and sprayed with aqueous test solutions prepared from 10′000 ppm DMSO stock solutions. After drying the leaf discs were infested with five L1 larvae. The samples were assessed for mortality, anti-feeding effect, and growth inhibition in comparison to untreated samples 3 days after infestation. Control of Spodoptera littoralis by a test sample is given when at least one of the categories mortality, anti-feedant effect, and growth inhibition is higher than the untreated sample.

CCN=S(=O)(c1ccc2oc(-c3ncccc3S(=O)(=O)CC)nc2c1)C(F)(F)F (centres unmarked) [P19, ethylimino-[2-(3-ethylsulfonyl-2-pyridyl)-1,3-benzoxazol-5-yl]-oxo-(trifluoromethyl)-λ^6-sulfane]
≥ 80%: percent effect (mortality or growth inhibition) at 200 ppm [1] | effect (mortality or growth inhibition) at 200 ppm [2] | percent effect (mortality or growth inhibition) at 200 ppm [3] | mortality at 200 ppm [4] | percent control (mortality, anti-feeding effect or growth inhibition) at 200 ppm [5]

CCS(=O)(=O)c1cc(-c2ncc(C#N)cn2)cnc1-c1nc2cc(S(=N)(=O)C(F)(F)F)ccc2n1C (centres unmarked) [P52, 2-[5-ethylsulfonyl-6-[1-methyl-5-(trifluoromethylsulfonimidoyl)benzimidazol-2-yl]-3-pyridyl]pyrimidine-5-carbonitrile]
≥ 80%: percent effect (mortality or growth inhibition) at 200 ppm [1] | effect (mortality or growth inhibition) at 200 ppm [2] | percent effect (mortality or growth inhibition) at 200 ppm [3] | mortality at 200 ppm [4] | percent control (mortality, anti-feeding effect or growth inhibition) at 200 ppm [5]

CCS(=O)(=O)c1cc(Oc2ccccn2)cnc1-c1nc2cc(S(=N)(=O)C(F)(F)F)ccc2n1C (centres unmarked) [P50, [2-[3-ethylsulfonyl-5-(2-pyridyloxy)-2-pyridyl]-1-methyl-benzimidazol-5-yl]-imino-oxo-(trifluoromethyl)-λ^6-sulfane]
≥ 80%: percent effect (mortality or growth inhibition) at 200 ppm [1] | effect (mortality or growth inhibition) at 200 ppm [2] | percent effect (mortality or growth inhibition) at 200 ppm [3] | mortality at 200 ppm [4] | percent control (mortality, anti-feeding effect or growth inhibition) at 200 ppm [5]

CCS(=O)(=O)c1ccc(-n2cncn2)nc1-c1nc2cc(S(=N)(=O)C(F)(F)F)ccc2n1C (centres unmarked) [P44, [2-[3-ethylsulfonyl-6-(1,2,4-triazol-1-yl)-2-pyridyl]-1-methyl-benzimidazol-5-yl]-imino-oxo-(trifluoromethyl)-λ^6-sulfane]
≥ 80%: percent effect (mortality or growth inhibition) at 200 ppm [1] | percent effect (mortality or growth inhibition) at 200 ppm [3] | mortality at 200 ppm [4] | percent control (mortality, anti-feeding effect or growth inhibition) at 200 ppm [5]

CCS(=O)(=O)c1cccnc1-c1nc2cc(S(=O)(=NC)C(F)(F)F)ccc2o1 (centres unmarked) [P18, [2-(3-ethylsulfonyl-2-pyridyl)-1,3-benzoxazol-5-yl]-methylimino-oxo-(trifluoromethyl)-λ^6-sulfane]
≥ 80%: percent effect (mortality or growth inhibition) at 200 ppm [1] | effect (mortality or growth inhibition) at 200 ppm [2] | percent effect (mortality or growth inhibition) at 200 ppm [3] | mortality at 200 ppm [4] | percent control (mortality, anti-feeding effect or growth inhibition) at 200 ppm [5]

CCN=S(=O)(c1ccc2c(c1)nc(-c1nc(-n3cncn3)ccc1S(=O)(=O)CC)n2C)C(F)(F)F (centres unmarked) [P45, ethylimino-[2-[3-ethylsulfonyl-6-(1,2,4-triazol-1-yl)-2-pyridyl]-1-methyl-benzimidazol-5-yl]-oxo-(trifluoromethyl)-λ^6-sulfane]
≥ 80%: percent effect (mortality or growth inhibition) at 200 ppm [1] | percent effect (mortality or growth inhibition) at 200 ppm [3] | mortality at 200 ppm [4] | percent control (mortality, anti-feeding effect or growth inhibition) at 200 ppm [5]

CCN=S(=O)(c1ccc2c(c1)nc(-c1ncc(Oc3ccccn3)cc1S(=O)(=O)CC)n2C)C(F)(F)F (centres unmarked) [P51, ethylimino-[2-[3-ethylsulfonyl-5-(2-pyridyloxy)-2-pyridyl]-1-methyl-benzimidazol-5-yl]-oxo-(trifluoromethyl)-λ^6-sulfane]
≥ 80%: percent effect (mortality or growth inhibition) at 200 ppm [1] | effect (mortality or growth inhibition) at 200 ppm [2] | percent effect (mortality or growth inhibition) at 200 ppm [3] | mortality at 200 ppm [4] | percent control (mortality, anti-feeding effect or growth inhibition) at 200 ppm [5]

CCN=S(=O)(c1ccc2c(c1)nc(-c1ncc(-c3ncc(C#N)cn3)cc1S(=O)(=O)CC)n2C)C(F)(F)F (stereo not drawn) [P53, 2-[5-ethylsulfonyl-6-[5-[N-ethyl-S-(trifluoromethyl)sulfonimidoyl]-1-methyl-benzimidazol-2-yl]-3-pyridyl]pyrimidine-5-carbonitrile]
≥ 80%: percent effect (mortality or growth inhibition) at 200 ppm [1] | effect (mortality or growth inhibition) at 200 ppm [2] | percent effect (mortality or growth inhibition) at 200 ppm [3] | mortality at 200 ppm [4] | percent control (mortality, anti-feeding effect or growth inhibition) at 200 ppm [5]

CCS(=O)(=O)c1cccnc1-c1nc2cc(S(=O)(=NC3CC3)C(F)(F)F)ccc2o1 (centres unmarked) [P13, cyclopropylimino-[2-(3-ethylsulfonyl-2-pyridyl)-1,3-benzoxazol-5-yl]-oxo-(trifluoromethyl)-λ^6-sulfane]
≥ 80%: percent effect (mortality or growth inhibition) at 200 ppm [1] | percent effect (mortality or growth inhibition) at 200 ppm [3] | mortality at 200 ppm [4] | percent control (mortality, anti-feeding effect or growth inhibition) at 200 ppm [5]

CCN=S(=O)(c1ccc2oc(-c3ncc(N(C)C(C)=O)cc3S(=O)(=O)CC)nc2c1)C(F)(F)F (stereo not drawn) [P3, N-[5-ethylsulfonyl-6-[5-[N-ethyl-S-(trifluoromethyl)sulfonimidoyl]-1,3-benzoxazol-2-yl]-3-pyridyl]-N-methyl-acetamide]
≥ 80%: percent effect (mortality or growth inhibition) at 200 ppm [1] | percent effect (mortality or growth inhibition) at 200 ppm [3] | mortality at 200 ppm [4] | percent control (mortality, anti-feeding effect or growth inhibition) at 200 ppm [5]

CCS(=O)(=O)c1cc(Oc2ccccn2)cnc1-c1nc2cc(S(=N)(=O)C(F)(F)F)ccc2o1 (centres unmarked) [P9, [2-[3-ethylsulfonyl-5-(2-pyridyloxy)-2-pyridyl]-1,3-benzoxazol-5-yl]-imino-oxo-(trifluoromethyl)-λ^6-sulfane]
≥ 80%: percent effect (mortality or growth inhibition) at 200 ppm [1] | effect (mortality or growth inhibition) at 200 ppm [2] | percent effect (mortality or growth inhibition) at 200 ppm [3] | mortality at 200 ppm [4] | percent control (mortality, anti-feeding effect or growth inhibition) at 200 ppm [5]

CCN=S(=O)(c1ccc2oc(-c3ncc(Oc4ccccn4)cc3S(=O)(=O)CC)nc2c1)C(F)(F)F (centres unmarked) [P10, ethylimino-[2-[3-ethylsulfonyl-5-(2-pyridyloxy)-2-pyridyl]-1,3-benzoxazol-5-yl]-oxo-(trifluoromethyl)-λ^6-sulfane]
≥ 80%: percent effect (mortality or growth inhibition) at 200 ppm [1] | effect (mortality or growth inhibition) at 200 ppm [2] | percent effect (mortality or growth inhibition) at 200 ppm [3] | percent control (mortality, anti-feeding effect or growth inhibition) at 200 ppm [5]

CCN=S(=O)(c1ccc2oc(-c3ncc(-c4ncccn4)cc3S(=O)(=O)CC)nc2c1)C(F)(F)F (centres unmarked) [P35, ethylimino-[2-(3-ethylsulfonyl-5-pyrimidin-2-yl-2-pyridyl)-1,3-benzoxazol-5-yl]-oxo-(trifluoromethyl)-λ^6-sulfane]
≥ 80%: percent effect (mortality or growth inhibition) at 200 ppm [1] | effect (mortality or growth inhibition) at 200 ppm [2] | percent effect (mortality or growth inhibition) at 200 ppm [3] | percent control (mortality, anti-feeding effect or growth inhibition) at 200 ppm [5]

CCN=S(=O)(c1ccc2oc(-c3ncc(C4CC4)cc3S(=O)(=O)CC)nc2c1)C(F)(F)F (centres unmarked) [P11, [2-(5-cyclopropyl-3-ethylsulfonyl-2-pyridyl)-1,3-benzoxazol-5-yl]-ethylimino-oxo-(trifluoromethyl)-λ^6-sulfane]
≥ 80%: percent effect (mortality or growth inhibition) at 200 ppm [1] | effect (mortality or growth inhibition) at 200 ppm [2] | percent effect (mortality or growth inhibition) at 200 ppm [3] | mortality at 200 ppm [4] | percent control (mortality, anti-feeding effect or growth inhibition) at 200 ppm [5]

CCN=S(=O)(c1ccc2oc(-c3ncc(OCC(F)(F)F)cc3S(=O)(=O)CC)nc2c1)C(F)(F)F (centres unmarked) [P22, ethylimino-[2-[3-ethylsulfonyl-5-(2,2,2-trifluoroethoxy)-2-pyridyl]-1,3-benzoxazol-5-yl]-oxo-(trifluoromethyl)-λ^6-sulfane]
≥ 80%: percent effect (mortality or growth inhibition) at 200 ppm [1] | effect (mortality or growth inhibition) at 200 ppm [2] | percent effect (mortality or growth inhibition) at 200 ppm [3] | percent control (mortality, anti-feeding effect or growth inhibition) at 200 ppm [5]
